Measured values taken from patent US12472263B2, “Ophthalmic formulation” (PANOPTES PHARMA GES.M.B.H., priority 2018, dated 2025).
≈ marks a conversion by molar mass, not a printed value. Where a name gives a salt, the structure may show the parent alone. Read-outs that look alike come from different tables or passages of the source.

How the values were obtained:
[1] = Thermodynamic solubility in PBS pH 7.4 and in 5% HSA in PBS; format: physicochemical; conditions: for solubility thermodynamic: thermodynamic from solid; for Increase in solubility: from PBS to 5% HSA in PBS
Procedure: The process was initiated by adding 1 mL of defined buffer to about 1 mg of the solid compound. The solutions were mixed for at least 15 hours. If there was no undissolved substance in the solution visible, an additional portion of the solid compound was added and the solution was further mixed for at least 15 hours. This step was repeated until a saturated solution in equilibrium was achieved; excess solid was clearly visible. The total mixing time until equilibrium should exceed 40 hours. After reaching the equilibrium, the solutions were centrifuged for 10 minutes at 14,000 rpm.

[2] = target: T1, HSA (human serum albumin) (Homo sapiens, UniProt P02768); test: Binding of different pharmaceutically active compounds to albumin, RED assay; format: in vitro ADME; conditions: 5 h, pH 7.4
Procedure: (§1) For analysis of binding of different pharmaceutically active compounds to HSA (human serum albumin) a rapid equilibrium dialysis (RED) assay from Thermo Scientific™ was conducted. Different pharmaceutically active compounds (in saturated solutions as prepared in Example 1) were applied to the donor side of the device. PBS pH 7.4 was used as acceptor medium. The time required to achieve equilibrium in the dialysis was determined to 5 hours. The formulations were incubated at 23° C. at 300 rpm. The unbound fraction was allowed to permeate through the dialysis membrane into the acceptor buffer chamber. After 5 hours equilibration time, the unbound fraction was determined by analyzing the amount of the active compound in each compartment via LC/MS.
The amount of free compound was calculated according to the equation:
The amount of bound compound is calculated as % bound=100−% free

[3] = PK study in rabbits after topical ocular administration; format: in vivo, New Zealand White rabbits
Procedure: To confirm that PP-001/albumin formulations deliver sufficient PP-001 to target tissues (i.e. conjunctiva and cornea), a pharmacokinetic study was performed in New Zealand White rabbits.
10 female animals of ca. 3 months age were dosed one drop (35 μL drop size) of the formulation 1 (3 mg/ml PP-001) in both eyes at time point 0. Animals were sacrificed 5 or 30 minutes or 2, 4, or 12 hours after dosing and ocular tissues and plasma were collected. PP-001 concentration in plasma and tissues were determined by a validated HPLC-MS analytical method.

uveitis = conditions: cited from earlier work
[4] = Aqueous solubility in phosphate buffer pH 7.4, without and with 5% albumin; format: physicochemical; conditions: thermodynamic from solid
Procedure: As used herein, “solubility in aqueous solution of at least X mg/mL” refers to thermodynamic solubility of a compound in an aqueous 50 mM phosphate buffer or phosphate buffered saline (PBS) solution at pH 7.4 at least X mg/mL. PP-001 has a solubility of 0.8 mg/mL in an aqueous phosphate buffer solution at pH 7.4. However, if the aqueous buffer solution comprises 5% albumin PP-001 has solubility of at least 5 mg/mL.

human serum albumin = human serum albumin (Homo sapiens, UniProt P02768); test: Binding of PP-001 to albumin, rapid equilibrium dialysis (RED) assay; format: in vitro ADME; conditions: PP-001/human serum albumin formulation, pH 7.4; formulation dosed in the rabbit PK study
Procedure: as §1, with “PP-001” for “different pharmaceutically active compounds”, “PP-001 formulations” for “pharmaceutically active compounds (in saturated solutions as prepared in Example 1)”, “device and 50 mM phosphate buffer” for “device. PBS”, “time” for “time,”, “PP-001” for “the active compound”, “HPLC/DAD.” for “LC/MS.”
(§2) To investigate nonspecific binding of PP-001 to the RED Device Inserts, a solution of 0.05 mg/mL PP-001 in 50 mM phosphate buffer pH 7.4 was used as a control sample. PP-001 concentration in the acceptor compartment was >82% of the concentration in the donor compartment. Only minor non-specific binding of PP-001 to the RED device was determined.
(§3) The amount of free PP-001 was calculated according to the equation:
(§4) The amount of bound PP-001 is calculated as % bound=100−% free

[5] = target: T1, HSA (human serum albumin); test: as above; format: in vitro ADME
Procedure: as §1, with “PP-001” for “different pharmaceutically active compounds”, “PP-001 formulations” for “pharmaceutically active compounds (in saturated solutions as prepared in Example 1)”, “device and 50 mM phosphate buffer” for “device. PBS”, “time” for “time,”, “PP-001” for “the active compound”, “HPLC/DAD.” for “LC/MS.”
as §2, §3, §4

[6] = aqueous buffer, PBS pH 7.4, saturated, LC/MS, read-out: Thermodynamic solubility in PBS pH 7.4
[7] = plasma or biological fluid, 5% HSA in PBS pH 7.4, saturated, LC/MS, read-out: Thermodynamic solubility in 5% HSA in PBS pH 7.4

T1 sequence (P02768 25-609): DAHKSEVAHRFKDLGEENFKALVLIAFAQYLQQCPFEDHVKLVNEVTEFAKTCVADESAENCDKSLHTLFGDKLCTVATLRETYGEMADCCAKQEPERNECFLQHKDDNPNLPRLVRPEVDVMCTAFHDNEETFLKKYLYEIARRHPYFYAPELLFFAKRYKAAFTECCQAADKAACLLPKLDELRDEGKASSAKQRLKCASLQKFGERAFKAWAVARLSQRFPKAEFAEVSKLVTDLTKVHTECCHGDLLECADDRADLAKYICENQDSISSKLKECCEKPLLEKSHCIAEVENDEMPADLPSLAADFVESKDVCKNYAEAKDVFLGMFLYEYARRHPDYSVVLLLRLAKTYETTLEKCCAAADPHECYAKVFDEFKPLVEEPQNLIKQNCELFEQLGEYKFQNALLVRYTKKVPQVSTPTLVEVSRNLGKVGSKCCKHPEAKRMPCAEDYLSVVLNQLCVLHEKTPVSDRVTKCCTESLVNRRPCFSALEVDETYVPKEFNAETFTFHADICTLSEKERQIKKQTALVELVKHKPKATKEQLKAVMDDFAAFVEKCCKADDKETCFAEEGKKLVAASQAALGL
Sequence of human serum albumin (P02768 25-609): as above

With `C[C@@H]1CN([C@H]2CC[C@](C#N)(c3ccc(F)cc3)CC2)CC[C@]1(C(=O)O)c1ccccc1` [Levocabastine HCl] the solubility thermodynamic [1, 6] was 3 µg/mL, the Increase in solubility ([1]; HCl) was 2,333%^ and the Increase in solubility ([1]; listed as levocabastine HCl, HCl) was 2,333%. The solubility thermodynamic [1, 7] was 83 µg/mL and the “% bound” value ([2]; isolated protein) was 75.4%.
With `CCNC(=O)CCC/C=C\C[C@@H]1[C@@H](/C=C/[C@@H](O)CCc2ccccc2)[C@H](O)C[C@@H]1O` [Bimatoprost] the solubility thermodynamic [1, 6] was 1230 µg/mL (≈ 2970 µM), the Increase in solubility [1] was 144% and the solubility thermodynamic [1, 7] was 3010 µg/mL (≈ 7230 µM). The “% bound” value ([2]; isolated protein) was 77.6%.
With `O=C(Nc1c(F)c(F)c(-c2cccc(OC(F)(F)F)c2)c(F)c1F)c1ccsc1C(=O)O` [PP-001, 3-(2,3,5,6-tetrafluoro-3′-trifluoromethoxy-biphenyl-4-ylcarbamoyl)-thiophene-2-carboxylic acid] the Cmax ([3]; female, New Zealand White, rabbit, plasma, topical, 35 μL drop of 3 mg/ml per eye, one 35 μL drop of formulation 1 (3 mg/ml PP-001) in both eyes) was less than 9 ng/mL, the “absorption of PP-001 by ocular tissues (conjunctiva, cornea)” value ([3]; one 35 μL drop of formulation 1 (3 mg/ml PP-001) in both eyes) was “substantial amounts of PP-001 are absorbed by ocular tissues” and the “persistence in the cornea” value ([3]; one 35 μL drop of formulation 1 (3 mg/ml PP-001), up to 12 hours after dosing) was “highly persistent in the cornea”. The solubility thermodynamic [1, 6] was 48 µg/mL (≈ 100 µM), the solubility thermodynamic [1, 7] was 2910 µg/mL (≈ 6070 µM) and the “relapses of experimental autoimmune uveitis” value (uveitis; therapeutic approach) was “prevents relapses”. The “clinical and histological symptoms of uveitis” value (uveitis; two different rat models for uveitis) was “completely ameliorates clinical and histological symptoms”, the solubility ([4]; aqueous buffer with 5% albumin, aqueous with cosolvent or surfactant or cyclodextrin, buffer pH 7.4 with 5% albumin, read-out: solubility in aqueous buffer solution comprising 5% albumin) was no less than 5000 µg/mL and the solubility ([4]; aqueous phosphate buffer, aqueous buffer, phosphate buffer pH 7.4, read-out: aqueous solubility in phosphate buffer pH 7.4) was 800 µg/mL (≈ 1670 µM). For the same compound, the fraction unbound at 5 h, 3 mg/ml (human serum albumin) was less than 0.05, the “PP-001 concentration in the acceptor compartment as % of the donor compartment (nonspecific binding control)” value ([5]; 0.05 mg/mL PP-001 in 50 mM phosphate buffer pH 7.4, no albumin) was greater than 82% and the “binding of PP-001 to albumin (in words)” value ([5]; even at high PP-001 concentrations) was “nearly completely bound to albumin”. The “% bound” value [2] was roughly 100% and the “% bound” value ([2]; isolated protein) was 99.9%.
For Netarsudil mesylate, the “Thermodynamic solubility in 5% HSA in PBS pH 7.4” value ([1]; 5% HSA in PBS pH 7.4, saturated, LC/MS) was 0.140 mg/mL, the “Thermodynamic solubility in PBS pH 7.4” value ([1]; PBS pH 7.4, saturated, LC/MS) was less than 0.000051 mg/mL and the Increase in solubility [1] was >10,000%. The Increase in solubility ([1]; listed as netarsudil mesylate) was > 274,763%.
Compound `CNCC(O)c1ccc(OC(=O)C(C)(C)C)c(OC(=O)C(C)(C)C)c1` (stereo not drawn) [Dipivefrin HCl] has a solubility thermodynamic [1, 6] of 2340 µg/mL, an Increase in solubility [1] of 218% and a solubility thermodynamic [1, 7] of 7440 µg/mL. The “% bound” value ([2]; isolated protein) was 64.8%.
`NC(=O)Cc1cccc(C(=O)c2ccccc2)c1N` [Nepafenac] gave a solubility thermodynamic [1, 6] of 9 µg/mL (≈ 35.4 µM), an Increase in solubility [1] of 619% and a solubility thermodynamic [1, 7] of 64 µg/mL (≈ 252 µM). For the same compound, the “% bound” value ([2]; isolated protein) was 92.1%.
With `CC(=O)O[C@H]1C[C@@]2(C)[C@@H](C[C@@H](O)[C@H]3[C@@]4(C)CC[C@@H](O)[C@@H](C)[C@@H]4CC[C@@]32C)/C1=C(\CCC=C(C)C)C(=O)O` [Fusidic Acid] the solubility thermodynamic [1, 6] was 483 µg/mL (≈ 935 µM), the Increase in solubility [1] was 195% and the solubility thermodynamic [1, 7] was 1420 µg/mL (≈ 2750 µM). For the same compound, the “% bound” value ([2]; isolated protein) was 95.7%.
With `CC(=O)OCC(=O)[C@@]1(O)CC[C@H]2[C@@H]3CCC4=CC(=O)C=C[C@]4(C)[C@H]3[C@@H](O)C[C@@]21C` [Prednisolone acetate] the “% bound” value ([2]; isolated protein) was 94.3%.
`CN1CCCC(n2nc(Cc3ccc(Cl)cc3)c3ccccc3c2=O)CC1` (stereo not drawn) [Azelastine HCl] showed a solubility thermodynamic [1, 6] of 421 µg/mL, an Increase in solubility [1] of 96% and a solubility thermodynamic [1, 7] of 827 µg/mL. For the same compound, the “% bound” value ([2]; isolated protein) was 80.9%.
Work on `CCN[C@H]1CN(CCCOC)S(=O)(=O)c2sc(S(N)(=O)=O)cc21` [Brinzolamide] yielded a solubility thermodynamic [1, 6] of 273 µg/mL (≈ 712 µM), an Increase in solubility [1] of 42% and a solubility thermodynamic [1, 7] of 387 µg/mL (≈ 1010 µM). The “% bound” value ([2]; isolated protein) was 70.3%.
